Assay in all cases: NCI-60 cell line screen, 48 h
Assay [1] has as its system CAKI-1.
Assay [2] has as its system NCI-H522.
The subject of assay [3] is IGROV-1.
The test system of assay [4] is K562.
The test system of assay [5] is 786-0.
The subject of assay [6] is RPMI-8226.
Assay [7] deals with OVCAR-5.
In assay [8] the test system is SK-MEL-2.
The subject of assay [9] is M14.
The subject of assay [10] is CCRF-CEM.
The test system of assay [11] is DLD-1.
Assay [12] concerns SF-268.
Assay [13] has as its system SF-539.
Assay [14] concerns KM12.
Assay [15] relates to NCI-H460.
For assay [16], the system named is TK-10.
Assay [17] concerns RXF 393.
Assay [18] relates to BT-549.
Assay [19] deals with T47D.
Assay [20] has as its system MDA-N.

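Interpolation was linear, between the two tested concentrations surrounding the appropriate level; five concentrations were tested over 48 hours in 96-well plates. At the GI50, growth is halved.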 Calls of active or inactive are those of the source. No stated cut-off is given here; in the data, active = GI50 up to about 1.1 µM and inactive = higher.

In the case of `COc1cc2c(cc1OC)C(C(CO)CO)N(CC(O)CCl)CC2` (stereo unspecified), the GI50 in [1], in [2], in [3], in [4], in assay [5] and in assay [6] was > 100 µM (inactive) in each case. Further, the GI50 in assay [7], in [8], in assay [9], in [10], in [11] and in assay [12] was > 100 µM (inactive) each time. For the same molecule, the GI50 in assay [13], in assay [14], in [15] and in assay [16] was > 100 µM (inactive) in each case.

As for `Cc1nc2c(n1CCO)C(=O)c1ccccc1C2=O`, the GI50 is 14.5 µM (inactive) in [2]; 20.3 µM (inactive) in assay [3]; 25.6 µM (inactive) in [4]; 46.9 µM (inactive) in [5]; 18.4 µM (inactive) in [8]; 21.4 µM (inactive) in assay [9]. Further, the GI50 is 27.4 µM (inactive) in assay [10]; 38.2 µM (inactive) in [11]; 32.5 µM (inactive) in assay [12]; 29.9 µM (inactive) in assay [13]; 33.7 µM (inactive) in assay [17]; 37.7 µM (inactive) in assay [14]. The GI50 in [15] was 27.3 µM (inactive); in assay [16], > 100 µM (inactive).

For `CSc1nc(Cl)c(Br)c(Sc2nc(N)nc3nc[nH]c23)n1`, the GI50 in assay [1] was 3.42 µM (inactive); in assay [2] it was 1.63 µM (inactive); in assay [3], 13.5 µM (inactive); in assay [4], 3.34 µM (inactive); in assay [5], 3.27 µM (inactive); in assay [6], 2.25 µM (inactive). The GI50 is 11.8 µM (inactive) in assay [7]; 4.78 µM (inactive) in assay [8]; 4.56 µM (inactive) in [9]; 2.77 µM (inactive) in [10]; 11.1 µM (inactive) in assay [11]; 3.44 µM (inactive) in assay [12]. Also, the GI50 in assay [13] was 2.81 µM (inactive); in assay [14], 5.18 µM (inactive); in [15], 5.07 µM (inactive); in assay [16], 6.79 µM (inactive).

For the molecule `C=CCN1COc2c(cc3c4c(cccc24)C(=O)O3)C1`, the GI50 was 27.5 µM (inactive) in [1]; 14.1 µM (inactive) in assay [2]; > 100 µM (inactive) in assay [3]; 15.5 µM (inactive) in assay [4]; 20.5 µM (inactive) in [5]; 33.6 µM (inactive) in assay [6]. Also, the GI50 in assay [7] is 36.6 µM (inactive); in [8], > 100 µM (inactive); in assay [9], 22.9 µM (inactive); in assay [10], 19.6 µM (inactive); in assay [11], 25.4 µM (inactive); in assay [12], 48.6 µM (inactive). Also, the GI50 in assay [17] is > 10 µM (inactive); in assay [14], 75.3 µM (inactive); in [15], 43.6 µM (inactive); in assay [16], 21.7 µM (inactive).

Turning to `C[Si](C)(C)c1ccc(-c2sc(-c3ccc([Si](C)(C)C)s3)c3c2C[Si]2(C3)Cc3c(-c4ccc([Si](C)(C)C)s4)sc(-c4ccc([Si](C)(C)C)s4)c3C2)s1`, the GI50 in [1], in [2], in assay [3], in assay [4], in [5] and in [6] was > 100 µM (inactive) each time. For the same molecule, the GI50 in assay [7], in [9], in assay [10], in assay [11], in [12] and in assay [13] was > 100 µM (inactive) throughout. Also, the GI50 in assay [17], in [14], in assay [15] and in [16] was > 100 µM (inactive) each time.

As to `CC(=O)O[C@H]1C[C@H]2[C@@H]([C@H](OC(C)=O)C[C@@H]3CC4(CC[C@@]32C)OOC2(CCCCC2)OO4)[C@@H]2CC[C@H]([C@H](C)CCC(=O)O)[C@@]12C`, the GI50 in assay [18] is 4.24 µM (inactive); in assay [1], 7.1 µM (inactive); in [2] it was 3.24 µM (inactive); in assay [3] it was 1.87 µM (inactive); in assay [4], 5.57 µM (inactive); in [5], 11.3 µM (inactive). In addition, the GI50 was 7 µM (inactive) in assay [19]; 3.46 µM (inactive) in assay [6]; 10.7 µM (inactive) in [7]; 8.75 µM (inactive) in assay [20]; 13.1 µM (inactive) in assay [8]; 12 µM (inactive) in assay [9]. For the same molecule, the GI50 is 2.33 µM (inactive) in [10]; 6.81 µM (inactive) in assay [12]; 7.85 µM (inactive) in assay [13]; 13.5 µM (inactive) in assay [17]; 3.56 µM (inactive) in assay [14]; 4.43 µM (inactive) in assay [15]. In assay [16], the GI50 is 12.4 µM (inactive).

For the molecule `CCCCCCCCCCCCCCNCC(OCC)OCC`, the GI50 is 3.66 µM (inactive) in assay [2]; 15.2 µM (inactive) in [3]; 16.9 µM (inactive) in assay [5]; 15.3 µM (inactive) in assay [7]; 14.5 µM (inactive) in [8]; 14.1 µM (inactive) in assay [9]. The GI50 in assay [10] is 4.84 µM (inactive); in assay [11], 13.7 µM (inactive); in assay [12], 17.3 µM (inactive); in [13], 16.1 µM (inactive); in [17], 10.2 µM (inactive); in assay [14], 10.3 µM (inactive). The GI50 was 17.1 µM (inactive) in assay [15] and 17.4 µM (inactive) in assay [16].

Consider `O=[N+]([O-])c1ccc2c(c1)Cc1cc(/N=C/c3ccc4c(c3)OCO4)ccc1-2`, for which the GI50 in assay [18], in [1], in assay [2], in assay [3], in assay [4] and in assay [5] was > 100 µM (inactive) in each case. Further, the GI50 in [19], in [6], in [7], in assay [20], in assay [8] and in [9] was > 100 µM (inactive) in each case. In addition, the GI50 was 61.9 µM (inactive) in assay [10]; > 100 µM (inactive) in assay [12]; > 100 µM (inactive) in [13]; > 100 µM (inactive) in assay [17]; > 100 µM (inactive) in assay [14]; > 100 µM (inactive) in [15]. In assay [16], the GI50 was > 100 µM (inactive).

In the case of `Nc1ccc(C(=O)N2CCC[C@H]2CO)c(N)c1`, the GI50 in assay [18], in assay [1], in assay [2], in assay [3], in assay [4] and in assay [5] was > 100 µM (inactive) in each case. Besides, the GI50 in [19], in assay [6], in assay [7], in assay [20], in [8] and in assay [9] was > 100 µM (inactive) throughout. Besides, the GI50 in assay [10], in assay [12], in [13], in assay [17], in assay [14] and in assay [15] was > 100 µM (inactive) in each case. In addition, the GI50 in assay [16] was > 100 µM (inactive).

Consider `N#C/C(=C1\N=NC(N)=C(c2ccc(Cl)cc2)C1=O)c1ccc(Cl)cc1`, for which the GI50 in assay [1], in assay [2], in [3], in assay [4], in [5] and in assay [6] was > 100 µM (inactive) in each case. Besides, the GI50 in [7], in [9], in [10], in assay [11], in [12] and in [13] was > 100 µM (inactive) each time. Moreover, the GI50 in assay [17], in [14], in assay [15] and in assay [16] was > 100 µM (inactive) in each case.

Consider `CN(C)C(=S)/N=c1\ssc(=S)n1C1CCCCC1`, for which the GI50 in assay [1] was 33 µM (inactive); in [2] it was 13.1 µM (inactive); in assay [3], 98.9 µM (inactive); in assay [4], 16.9 µM (inactive); in [5], 17.1 µM (inactive); in assay [7], 74.1 µM (inactive). Besides, the GI50 in assay [8] was 52.8 µM (inactive); in [9] it was 14.7 µM (inactive); in [10] it was 0.23 µM (active); in [11], 21.5 µM (inactive); in [12], 32.4 µM (inactive); in [13] it was 20.7 µM (inactive). Also, the GI50 in [17] was 33.3 µM (inactive); in assay [14], 35.7 µM (inactive); in assay [15], 18 µM (inactive); in assay [16] it was > 100 µM (inactive).

Consider `CC1CC2C(=O)NC(=O)C2c2[nH]c3ccccc3c21` (stereo unspecified), for which the GI50 in [1] was 42.8 µM (inactive); in assay [2], 51.4 µM (inactive); in assay [3], > 100 µM (inactive); in [4], 91.2 µM (inactive); in [5] it was > 100 µM (inactive); in assay [6] it was > 100 µM (inactive). The GI50 in assay [7], in assay [8], in assay [9], in [10], in [11] and in assay [12] was > 100 µM (inactive) in each case. Besides, the GI50 in [13], in assay [14] and in assay [15] was > 100 µM (inactive) in each case.

These data come from ChEMBL document CHEMBL1201862, “PubChem BioAssay data set” (2004).
